Peptide text beside a SMILES is read from it. * marks the point of attachment. βGlc = OC[C@H]1O[C@@H](*)[C@H](O)[C@@H](O)[C@@H]1O
Experiments:
[1] = test system: male Beagle dogs; assay: Cardiovascular safety evaluation after a single subcutaneous dose in male Beagle dogs; type: in vivo, dog; details: single s.c. injection 1, 5 or 20 mg/kg
Description: PNA5 -related cardiovascular effects were evaluated in male Beagle dogs at dose levels of 1, 5, or 20 mg/kg. To evaluate the effects of PNA5 when administered subcutaneously on the cardiovascular system the following parameters were measured including clinical observations, heart rate, arterial blood pressure (systolic, diastolic, and mean), pulse pressure, body temperature, and ECG waveforms (from which ECG waveform morphologies and ECG intervals PR, QRS, QT, and heart rate corrected QT [QTc] were derived).

[2] = Stability of dosing formulations; type: physicochemical; details: solutions in 0.9 % sodium chloride, 0.1 mg/mL and 10 mg/mL
Description: The analyzed dosing formulations were within the protocol-specified range of target concentrations for solutions and were stable at 0.1 mg/mL and 10 mg/mL following 24 h of room temperature storage and following 9 days of refrigerated storage.
The analyzed dosing formulations contained 95.5–108.7 % of the test article, which was within the protocol-specified range of target concentrations for solutions (90–110 %), and were stable at 0.1 mg/mL and 10 mg/mL following 24 h of room temperature storage and following 9 days of refrigerated storage. The test article was not detected in the analyzed vehicle formulation that was administered to the control groups.

[3] = test system: male Sprague Dawley rats; assay: Pulmonary safety parameters after a single subcutaneous dose in male Sprague Dawley rats; type: in vivo, rat; details: single s.c. dose 1, 5 or 40 mg/kg, n = 8 per group
Description: Respiratory rate, tidal volume, and calculated minute volume were measured in male Sprague Dawley rats to measure pulmonary safety parameters after a single subcutaneous dose of 0, 1, 5, or 40 mg/kg PNA5 (n = 8 males per group).

[4] = Toxicokinetics of PNA5 in Beagle dog plasma; details: for Tmax: table: average (range), text b115: median; for AUC0–2hr accumulation ratio: day 28 vs day 1, sexes combined; for fold increase in AUC0–2hr for a 20-fold increase in dose / fold increase in Cmax for a 20-fold increase in dose: 1 to 20 mg/kg/day; for time post-dose up to which PNA5 was quantifiable: days 1 and 28, limit of quantitation 5 ng/mL
Description: Toxicokinetic (TK) of PNA5 was obtained from plasma following a single and repeated subcutaneous injection administration of PNA5 once daily for 28 days. Blood samples were collected on days 1 and 28 at the following time points: pre-dose and at approximately 5, 15, 30, 60, and 120 min post-dose (equivalent to 0.083, 0.25, 0.5, 1, and 2 h).
For the rat study, a total of 6 rats for each sex were assigned randomly to treatment groups 2–4 (those treated with PNA5). Three rats per sex were assigned to group 1 (vehicle control). Rats were sampled in satellite groups; rats' blood was taken at alternating time points, resulting in a total n = 3 per time point for six animals. For the dog study, three animals per sex were assigned to group 2 and group 3, and five animals per sex were assigned to group 1 and group 4. Blood was collected from canines via venipuncture.
Blood was collected in heparinized tubes containing a protease inhibitor cocktail consisting of 4 mM 0-phenanthroline, 1.2 mM pepstatin A, and 0.5 M EDTA. Blood samples were centrifuged for 15 min at 2500 x g at room temperature. Plasma was transferred into pre-cooled, pre-labeled collection tubes, frozen immediately in liquid nitrogen/dry ice, and stored at −80 °C until analysis.
PNA5 levels were analyzed using ultra-high performance liquid chromatography (UHPLC) with tandem mass spectrometric (MS/MS) detection. Precision and accuracy, reproducibility, selectivity, carryover, recovery, matrix effects, dilution integrity, hemolysis, stock stability, and matrix stability were assessed prior to initiation of the validation. Samples (5 µL) were injected onto the column and separated using gradient elution. Target compounds were quantified by summing the height of previously identified fragment peaks in the LC-MS [3] spectra. The serum concentrations were estimated using a calibration curve, accounting for the dilution factors and the probe recoveries for each experiment. Standards were matrix-matched to samples and underwent the same sample preparation steps.
A noncompartmental analysis was used for parameter estimation. For PNA5 in plasma, the extravascular model was used for parameter estimation. For the rat study, all parameters were generated from PNA5 individual concentrations in plasma from days 1 and 28. Parameters were estimated using nominal dose levels and nominal sampling times relative to the dose administration. Plasma concentration values obtained at the pre-dose time point were used as the concentration at time 0 on days 1 and 28. For the dog study, all parameters were generated from PNA5 individual concentrations in plasma from days 1 and 28. Parameters were estimated using nominal dose levels and nominal sampling times relative to dose administration. Plasma concentration values obtained at the pre-dose time point were used as the concentration at time 0 on days 1 and 28. For Beagle dogs, concentration values reported as below the limit of quantitation (< 5 ng/mL) were assigned a value of 0.
The toxicokinetic parameters evaluated included the area under the curve of the plasma PNA5 concentration against time from time 0 (pre-dose) to 2 h (post-dose) (AUC0–2hr), the maximum plasma concentration (Cmax), time to maximum plasma concentration (Tmax), elimination rate (Kel), and the half-life. The area under the concentration vs. time curve was calculated using the linear trapezoidal method with linear interpolation for all profiles with at least three consecutive quantifiable concentrations. Kel was calculated from the slope using exponential regression of concentration versus time (Excel); exponential interpolations for all profiles include at least three concentrations plotted against time. Time 0 values and all concentrations listed as zero were excluded from Kel calculations. The half-life was calculated from Kel via the following equation: half-life Ln(2)/Kel.

For `CC[C@H](C)[C@H](NC(=O)[C@H](Cc1ccc(O)cc1)NC(=O)[C@@H](NC(=O)[C@H](CCCNC(=N)N)NC(=O)[C@@H](N)CC(=O)O)C(C)C)C(=O)N[C@@H](Cc1c[nH]cn1)C(=O)N[C@@H](CO[C@@H]1O[C@H](CO)[C@@H](O)[C@H](O)[C@H]1O)C(N)=O` [PNA5, Ang-1–6-Ser-O-Glu-NH2] (H-DRVYIHS(βGlc)-NH2), the “clinical observations, heart rate, arterial blood pressure, pulse pressure, body temperature and ECG waveforms” value [1] was “no effect”, the “stability of dosing formulations” value ([2]; 24 h of room temperature storage) was “stable” and the “stability of dosing formulations” value ([2]; 9 days of refrigerated storage) was “stable”. For the same compound, the “respiratory rate, tidal volume and calculated minute volume” value [3] was “no effect”, the AUC(0-t) ([4]; both, Beagle, dog, plasma, sc, 1 mg/kg/day, AUC0–2, dogs, plasma, s.c. 1 mg/kg/day, day 1, sexes combined, mean ± SD, n = 6, linear trapezoidal) was 0.0635 ± 0.0148 µg·h/mL and the Cmax ([4]; both, Beagle, dog, plasma, sc, 1 mg/kg/day, Cmax, Beagle dogs, plasma, s.c. once daily 1 mg/kg/day, day 1, sexes combined, mean ± SD, n = 6, UHPLC-MS/MS, noncompartmental) was 0.11 ± 0.0373 µg/mL. It also gave a Cmax ([4]; both, Beagle, dog, plasma, sc, 1 mg/kg/day, Cmax, Beagle dogs, plasma, s.c. once daily 1 mg/kg/day, day 28, sexes combined, mean ± SD, n = 6, UHPLC-MS/MS, noncompartmental) of 0.146 ± 0.0596 µg/mL, a half-life ([4]; both, Beagle, dog, plasma, sc, 1 mg/kg/day, dogs, plasma, s.c. 1 mg/kg/day, day 1, sexes combined, mean ± SD, n = 6, Ln(2)/Kel) of 17.4 ± 6 min and a half-life ([4]; both, Beagle, dog, plasma, sc, 1 mg/kg/day, dogs, plasma, s.c. 1 mg/kg/day, day 28, sexes combined, mean ± SD, n = 6, Ln(2)/Kel) of 15.6 ± 4.8 min. The Tmax ([4]; both, Beagle, dog, plasma, sc, 1 mg/kg/day, Tmax, dogs, plasma, s.c. 1 mg/kg/day, day 1, sexes combined) was 10 min, the AUC(0-t) ([4]; both, Beagle, dog, plasma, sc, 5 mg/kg/day, AUC0–2, dogs, plasma, s.c. 5 mg/kg/day, day 1, sexes combined, mean ± SD, n = 6, linear trapezoidal) was 0.358 ± 0.0951 µg·h/mL and the AUC(0-t) ([4]; both, Beagle, dog, plasma, sc, 5 mg/kg/day, AUC0–2, dogs, plasma, s.c. 5 mg/kg/day, day 28, sexes combined, mean ± SD, n = 6, linear trapezoidal) was 0.365 ± 0.0426 µg·h/mL. It also gave a Cmax ([4]; both, Beagle, dog, plasma, sc, 5 mg/kg/day, Cmax, Beagle dogs, plasma, s.c. once daily 5 mg/kg/day, day 1, sexes combined, mean ± SD, n = 6, UHPLC-MS/MS, noncompartmental) of 0.496 ± 0.115 µg/mL, a Cmax ([4]; both, Beagle, dog, plasma, sc, 5 mg/kg/day, Cmax, Beagle dogs, plasma, s.c. once daily 5 mg/kg/day, day 28, sexes combined, mean ± SD, n = 6, UHPLC-MS/MS, noncompartmental) of 0.444 ± 0.101 µg/mL and a half-life ([4]; both, Beagle, dog, plasma, sc, 5 mg/kg/day, dogs, plasma, s.c. 5 mg/kg/day, day 1, sexes combined, mean ± SD, n = 6, Ln(2)/Kel) of 30 ± 7.8 min. The half-life ([4]; both, Beagle, dog, plasma, sc, 5 mg/kg/day, dogs, plasma, s.c. 5 mg/kg/day, day 28, sexes combined, mean ± SD, n = 6, Ln(2)/Kel) was 34.8 ± 12.6 min, the Tmax ([4]; both, Beagle, dog, plasma, sc, 5 mg/kg/day, Tmax, dogs, plasma, s.c. 5 mg/kg/day, day 1, sexes combined) was 15 min and the Tmax ([4]; both, Beagle, dog, plasma, sc, 5 mg/kg/day, Tmax, dogs, plasma, s.c. 5 mg/kg/day, day 28, sexes combined) was 10 min. It also gave an AUC(0-t) ([4]; both, Beagle, dog, plasma, sc, 20 mg/kg/day, AUC0–2, dogs, plasma, s.c. 20 mg/kg/day, day 1, sexes combined, mean ± SD, n = 10, linear trapezoidal) of 1.27 ± 0.27 µg·h/mL, an AUC(0-t) ([4]; both, Beagle, dog, plasma, sc, 20 mg/kg/day, AUC0–2, dogs, plasma, s.c. 20 mg/kg/day, day 28, sexes combined, mean ± SD, n = 10, linear trapezoidal) of 1.08 ± 0.309 µg·h/mL and a Cmax ([4]; both, Beagle, dog, plasma, sc, 20 mg/kg/day, Cmax, Beagle dogs, plasma, s.c. once daily 20 mg/kg/day, day 1, sexes combined, mean ± SD, n = 10, UHPLC-MS/MS, noncompartmental) of 1.44 ± 0.453 µg/mL. The Cmax ([4]; both, Beagle, dog, plasma, sc, 20 mg/kg/day, Cmax, Beagle dogs, plasma, s.c. once daily 20 mg/kg/day, day 28, sexes combined, mean ± SD, n = 10, UHPLC-MS/MS, noncompartmental) was 1.12 ± 0.53 µg/mL, the half-life ([4]; both, Beagle, dog, plasma, sc, 20 mg/kg/day, dogs, plasma, s.c. 20 mg/kg/day, day 1, sexes combined, mean ± SD, n = 10, Ln(2)/Kel) was 41.4 ± 6 min and the half-life ([4]; both, Beagle, dog, plasma, sc, 20 mg/kg/day, dogs, plasma, s.c. 20 mg/kg/day, day 28, sexes combined, mean ± SD, n = 9, Ln(2)/Kel) was 48.6 ± 12.6 min. The Tmax ([4]; both, Beagle, dog, plasma, sc, 20 mg/kg/day, Tmax, dogs, plasma, s.c. 20 mg/kg/day, day 1, sexes combined) was 15 min, the Tmax ([4]; both, Beagle, dog, plasma, sc, 20 mg/kg/day, Tmax, dogs, plasma, s.c. 20 mg/kg/day, day 28, sexes combined) was 22.5 min and the “AUC0–2hr accumulation ratio” value ([4]; dogs, 1 mg/kg/day) was 0.99. For the same compound, the “AUC0–2hr accumulation ratio” value ([4]; dogs, 5 mg/kg/day) was 1.02, the “AUC0–2hr accumulation ratio” value ([4]; dogs, 20 mg/kg/day) was 0.85 and the “fold increase in AUC0–2hr for a 20-fold increase in dose” value ([4]; dogs, day 1, sexes combined) was ~20.06 fold. For the same compound, the “fold increase in Cmax for a 20-fold increase in dose” value ([4]; dogs, day 1, sexes combined) was ~13.06 fold, the “fold increase in AUC0–2hr for a 20-fold increase in dose” value ([4]; dogs, day 28, sexes combined) was ~17.19 fold and the “fold increase in Cmax for a 20-fold increase in dose” value ([4]; dogs, day 28, sexes combined) was ~7.70 fold. For the same compound, the “time post-dose up to which PNA5 was quantifiable” value ([4]; dogs, plasma, 1 mg/kg/day) was “up to 1 h”, the “time post-dose up to which PNA5 was quantifiable” value ([4]; dogs, plasma, 5 and 20 mg/kg/day, last sampling time 2 h) was “up to 2 h” and the Kel ([4]; dogs, plasma, s.c. 1 mg/kg/day, day 1, sexes combined, mean ± SD, n = 6, exponential regression) was 2.63 ± 0.97, 6 hr^–1. The Kel ([4]; dogs, plasma, s.c. 1 mg/kg/day, day 28, sexes combined, mean ± SD, n = 6, exponential regression) was 2.87 ± 0.86, 6 hr^–1, the “AUC0–2” value ([4]; dogs, plasma, s.c. 1 mg/kg/day, day 28, sexes combined, mean ± SD, n = 6, linear trapezoidal) was 62.61 ± 19.05, 6 hr*ng/mL and the Tmax ([4]; dogs, plasma, s.c. 1 mg/kg/day, day 28, sexes combined) was 0.167(0.083–0.25) hr. For the same compound, the Kel ([4]; dogs, plasma, s.c. 5 mg/kg/day, day 1, sexes combined, mean ± SD, n = 6, exponential regression) was 1.44 ± 0.33, 6 hr^–1, the Tmax ([4]; dogs, plasma, s.c. 5 mg/kg/day, day 1, sexes combined) was 15 min and the Kel ([4]; dogs, plasma, s.c. 5 mg/kg/day, day 28, sexes combined, mean ± SD, n = 6, exponential regression) was 1.32 ± 0.43, 6 hr^–1. For the same compound, the Tmax ([4]; dogs, plasma, s.c. 5 mg/kg/day, day 28, sexes combined) was 10 min, the Kel ([4]; dogs, plasma, s.c. 20 mg/kg/day, day 1, sexes combined, mean ± SD, n = 10, exponential regression) was 1.02 ± 0.17, 10 hr^–1 and the Tmax ([4]; dogs, plasma, s.c. 20 mg/kg/day, day 1, sexes combined) was 15 min. For the same compound, the Kel ([4]; dogs, plasma, s.c. 20 mg/kg/day, day 28, sexes combined, mean ± SD, n = 10, exponential regression) was 0.86 ± 0.35, 10 hr^–1, the AUC(0-t) ([4]; female, Beagle, dog, plasma, sc, 20 mg/kg/day, mean AUC0–2hr, females, dogs, females, 20 mg/kg/day (NOAEL), day 28) was 1.15 µg·h/mL and the Cmax ([4]; female, Beagle, dog, plasma, sc, 20 mg/kg/day, mean Cmax, females, dogs, females, 20 mg/kg/day (NOAEL), day 28) was 1.14 µg/mL. It also gave an AUC(0-t) ([4]; male, Beagle, dog, plasma, sc, 20 mg/kg/day, mean AUC0–2hr, males, dogs, males, 20 mg/kg/day (NOAEL), day 28) of 1 µg·h/mL and a Cmax ([4]; male, Beagle, dog, plasma, sc, 20 mg/kg/day, mean Cmax, males, dogs, males, 20 mg/kg/day (NOAEL), day 28) of 1.1 µg/mL.

— publication PMC12612990, “PNA5, a glycosylated angiotensin-(1−7) mas receptor agonist for vascular dementia: A two species toxicology and toxicokinetic study” (Toxicology Reports, 2025)
